Data published in patent US8637672B2 (Deciphera Pharmaceuticals, LLC, priority 2010, dated 2014).
Like-named read-outs stand apart in the source and are kept apart here.

What was measured:
VEGFR-1 (FLT1 kinase) = molecular target: T1, VEGFR-1 (FLT1 kinase) (Homo sapiens, UniProt P17948); assay: FLT1 Kinase Assay (VEGFR-1); type: biochemical; conditions: for IC50: methods of the Biological Data section; for Fold Selectivity VEGR-1/MET: ratio VEGFR-1 IC50 / MET IC50
T1 construct: GST tagged recombinant human FLT1, amino acids 781-1338; GST; host or cells: insect cells
T1 sequence (P17948 781-1338): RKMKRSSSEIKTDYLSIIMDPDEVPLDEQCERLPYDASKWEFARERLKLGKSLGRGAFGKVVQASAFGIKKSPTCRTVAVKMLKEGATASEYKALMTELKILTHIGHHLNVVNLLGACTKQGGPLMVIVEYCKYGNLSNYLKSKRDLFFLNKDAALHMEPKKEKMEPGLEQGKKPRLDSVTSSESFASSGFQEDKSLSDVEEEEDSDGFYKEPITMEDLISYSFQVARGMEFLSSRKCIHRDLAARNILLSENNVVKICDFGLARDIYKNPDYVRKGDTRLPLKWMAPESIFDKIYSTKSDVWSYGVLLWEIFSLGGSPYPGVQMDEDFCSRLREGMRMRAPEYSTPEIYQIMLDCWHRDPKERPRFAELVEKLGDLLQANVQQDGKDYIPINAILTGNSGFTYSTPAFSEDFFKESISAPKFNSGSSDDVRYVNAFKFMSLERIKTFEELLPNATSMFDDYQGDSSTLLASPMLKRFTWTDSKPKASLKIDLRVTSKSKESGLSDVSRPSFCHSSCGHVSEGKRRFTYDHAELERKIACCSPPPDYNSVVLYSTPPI
Experimental: Activity of FLT1 kinase was determined by a radioactive filtration binding assay where incorporation of ^33P from ^33P-γ-ATP to the substrate is measured. In this assay, detection of ^33P was indicative of FLT1 phosphorylation activity which was directly proportional to the amount of phosphorylated peptide substrate poly[Glu:Tyr] (4:1). Initially, the reaction mixture contained: 400 nM FLT1, 20 mM HEPES, pH 7.5, 10 mM MgCl2, 2 mM MnCl2, 1 mM EGTA, 0.02% Brij 35, 0.02 mg/mL BSA, 0.1 mM Na3VO4, and 2 mM DTT. The reaction mixture was incubated with compound at room temperature for 30 minutes. To initiate the reaction, an equal volume of 20 μM ATP and 0.2 mg/mL peptide substrate were added and then incubated at room temperature for 2 hours. The final assay conditions were: 200 nM FLT1, 10 μM ATP, 0.1 mg/ml, substrate 20 mM HEPES, pH 7.5, 10 mM MgCl2, 1 mM EGTA, 0.02% Brij 35, 0.02 mg/mL BSA, 0.1 mM Na3VO4, 2 mM DTT, and 1% DMSO. IC50 values were calculated from a series of % Activity values determined at a range of inhibitor concentrations using software routines as implemented in the Graph Pad Prism software package.
GST tagged recombinant human FLT1, amino acids 781-1338. Expressed in insect cells.

VEGFR-2 (KDR kinase) [1] = molecular target: T2, VEGFR-2 (KDR kinase) (Homo sapiens, UniProt P35968, DEL940-989/E990V); assay: KDR Kinase Assay (VEGFR-2); type: biochemical; conditions: for IC50: methods of the Biological Data section; for Fold Selectivity VEGFR-2/MET: ratio VEGFR-2 IC50 / MET IC50
Experimental: The activity of KDR kinase was determined by following the production of ADP from the kinase reaction through coupling with the pyruvate kinase/lactate dehydrogenase system (e.g., Schindler et al. Science 2000, 289, pp. 1938-1942). In this assay, the oxidation of NADH (thus the decrease at A340 nm) was continuously monitored spectrophotometrically. The reaction mixture (100 μl) contained KDR (Seq ID No. 3, 1.5 nM to 7.1 nM, nominal concentration), polyE4Y (1 mg/mL), pyruvate kinase (3.5 units), lactate dehydrogenase (5.5 units), phosphoenolpyruvate (1 mM), and NADH (0.28 mM) in 60 mM […] buffer containing 0.13% octyl-glucoside, 13 mM MgCl2, 6.8 mM DTT, and 3.5% DMSO at pH 7.5. The reaction was initiated by adding ATP (0.2 mM, final concentration). The absorption at 340 nm was continuously monitored for 3 h at 30° C. on a Polarstar Optima plate reader (BMG) or instrument of similar capacity. The reaction rate was calculated using the 1 h to 2 h time frame. Percent inhibition was obtained by comparison of reaction rate with that of a control (i.e., with no test compound). IC50 values were calculated from a series of percent inhibition values determined at a range of inhibitor concentrations using software routines as implemented in the GraphPad Prism software package.
KDR kinase assay K2 is the same as for assay K1 except that (1) a nominal concentration of 2.1 nM of enzyme was employed (2) the reaction was pre-incubated at 30° C. for 2 h prior to initiation with ATP and (3) 1.0 mM ATP (final concentration) was used to initiate the reaction.
KDR kinase assay K3 is the same as for assay K1 except that (1) a nominal concentration of 1.1 nM of enzyme was employed, (2) the buffer components per 100 μl reaction mixture were as follows: 75 mM Tris buffer containing 0.066% octyl-glucoside, 17 mM MgCl2, and 1% DMSO at pH 7.5, (3) the final concentration of DTT was 0.66 mM, (4) the reaction was pre-incubated at 30° C. for 1 h prior to initiation with ATP, and (5) 1.0 mM ATP (final concentration) was used to initiate the reaction.

c-MET kinase = molecular target: T3, c-MET kinase (Homo sapiens, UniProt P08581); conditions: values published in the '188 application (pp. 96-97); cited from earlier work
T3 construct: His6 with TEV-site leader (N); purchased Invitrogen PV3143

RON kinase = molecular target: T4, RON kinase (Homo sapiens, UniProt Q04912); conditions: values published in the '188/'556 applications; cited from earlier work
T4 construct: GST tagged recombinant human RON, amino acids 983-1400; GST; host or cells: insect cells
T4 sequence (Q04912 983-1400): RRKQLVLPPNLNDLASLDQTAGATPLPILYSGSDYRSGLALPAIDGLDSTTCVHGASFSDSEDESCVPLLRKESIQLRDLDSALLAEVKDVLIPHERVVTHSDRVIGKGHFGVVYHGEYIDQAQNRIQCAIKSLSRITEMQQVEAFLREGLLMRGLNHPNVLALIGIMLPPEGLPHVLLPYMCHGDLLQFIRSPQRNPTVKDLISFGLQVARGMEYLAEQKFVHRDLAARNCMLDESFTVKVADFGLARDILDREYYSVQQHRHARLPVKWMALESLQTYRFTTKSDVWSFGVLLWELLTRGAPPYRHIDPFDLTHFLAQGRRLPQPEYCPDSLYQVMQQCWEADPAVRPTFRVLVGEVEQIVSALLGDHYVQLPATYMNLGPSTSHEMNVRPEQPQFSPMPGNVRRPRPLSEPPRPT

VEGFR-2 (KDR kinase) [2] = molecular target: T2, VEGFR-2 (KDR kinase); conditions: values published in the '188/'556 applications; cited from earlier work

T2 sequence (P35968 with tags, fused parts or gaps DEL940-989/E990V): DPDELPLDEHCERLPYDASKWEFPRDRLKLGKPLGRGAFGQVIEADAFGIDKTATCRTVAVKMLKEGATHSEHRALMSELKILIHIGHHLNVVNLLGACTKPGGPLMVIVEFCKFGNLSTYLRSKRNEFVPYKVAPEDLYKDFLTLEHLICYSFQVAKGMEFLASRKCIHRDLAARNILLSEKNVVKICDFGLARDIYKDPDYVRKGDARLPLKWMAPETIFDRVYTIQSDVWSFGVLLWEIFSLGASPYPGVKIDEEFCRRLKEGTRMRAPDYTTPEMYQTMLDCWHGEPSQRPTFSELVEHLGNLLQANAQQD
T3 sequence (P08581 with tags, fused parts or gaps): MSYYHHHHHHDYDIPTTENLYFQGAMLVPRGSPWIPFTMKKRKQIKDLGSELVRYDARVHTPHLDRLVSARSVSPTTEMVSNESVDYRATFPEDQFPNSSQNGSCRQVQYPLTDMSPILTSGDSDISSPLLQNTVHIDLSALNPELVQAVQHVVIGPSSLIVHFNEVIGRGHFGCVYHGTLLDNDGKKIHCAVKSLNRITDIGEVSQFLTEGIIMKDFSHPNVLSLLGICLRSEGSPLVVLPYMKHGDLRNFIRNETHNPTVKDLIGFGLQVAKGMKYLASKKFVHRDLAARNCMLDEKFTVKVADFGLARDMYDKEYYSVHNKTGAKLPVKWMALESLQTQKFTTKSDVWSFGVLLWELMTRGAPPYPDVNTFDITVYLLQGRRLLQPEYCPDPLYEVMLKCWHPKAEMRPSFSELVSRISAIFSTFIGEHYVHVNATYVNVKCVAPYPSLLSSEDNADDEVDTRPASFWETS

IC50 (VEGFR-1 (FLT1 kinase)) [nM]	Fold Selectivity VEGR-1/MET (VEGFR-1 (FLT1 kinase))	IC50 (VEGFR-2 (KDR kinase) [1]) [nM]	Fold Selectivity VEGFR-2/MET (VEGFR-2 (KDR kinase) [1])	Compound	IC50 (c-MET kinase) [nM]	IC50 (RON kinase) [nM]	IC50 (VEGFR-2 (KDR kinase) [2]) [nM]
79	19.75	52	13	CC(=O)Nc1cc(Oc2cc(F)c(NC(=O)C3(C(=O)Nc4ccc(F)cc4)CC3)cc2F)ccn1 [Compound D, N-(4-(2-acetamidopyridin-4-yloxy)-2,5-difluorophenyl)-N′-(4-fluorophenyl)cyclopropane-1,1-dicarboxamide]	–	–	–
160	6.15	122	4.69	CC(=O)Nc1cc(Oc2ccc(NC(=O)C3(C(=O)Nc4ccc(F)cc4)CC3)c(F)c2)ccn1 [Compound E, N-(4-(2-acetamidopyridin-4-yloxy)-2-fluorophenyl)-N′-(4-fluorophenyl)cyclopropane-1,1-dicarboxamide]	–	–	–
–	0.45	–	2.13	CN1CCN(C2CCN(C(=O)Nc3cc(Oc4cc(F)c(NC(=O)C5(C(=O)Nc6ccc(F)cc6)CC5)cc4F)ccn3)CC2)CC1 [Compound G]	53	2	100
–	3.5	–	2.5	O=C(Nc1cc(Oc2cc(F)c(NC(=O)C3(C(=O)Nc4ccc(F)cc4)CC3)cc2F)ccn1)N1CC(CO)C1 [Compound H]	4	3	10
